Reference: patent US10435361B2, “Kinase inhibitors” (Topivert Pharma Limited, priority 2013, dated 2019)

What was measured:
Assay type in all cases: cell-based
[1] = tested on: PBMCs; assay: LPS-induced TNFα/IL-8 release in PBMC cells; settings: Homo sapiens, assay (b), read-out: IC50 Values for Inhibition of Cytokine Release PBMCs IL-8
Procedure, shortened: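 Healthy-donor PBMCs isolated by density gradient were pretreated with compound for 2 h, then stimulated with 1 ng/mL LPS (E. coli 0111:B4) for 24 h at 37° C., 5% CO2. IL-8 and TNFα in supernatants measured by sandwich ELISA.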

[2] = tested on: HT29 cells; assay: IL-1β-induced IL-8 release in HT29 cells; settings: Homo sapiens, HT-29, assay (d), read-out: IC50 Values for Inhibition of Cytokine Release HT29 cells IL-8
Description: HT29 cells, a human colon adenocarcinoma cell line, are plated in a 96 well plate (24 hr) and pre-treated with compounds at the desired concentration for 2 hours before addition of 5 ng/mL of IL-1β (Abcam) for 24 hours. Supernatants are harvested for IL-8 quantification by Sandwich ELISA (Duo-set, R&D System). The IC50 is determined from the dose response curve.

[3] = tested on: PBMCs; assay: Cell mitosis assay in PBMCs; settings: Homo sapiens, PBMC, 5 μg/mL
Description: Peripheral blood mononucleocytes (PBMCs) from healthy subjects are separated from whole blood (Quintiles, London, UK) using a density gradient (Histopaque®-1077, Sigma-Aldrich, Poole, UK). The PBMCs (3 million cells per sample) are subsequently treated with 2% PHA (phytohaemagglutinin, Sigma-Aldrich, Poole, UK) for 48 hr, followed by a 20 hr exposure to varying concentrations of test compounds. At 2 hr before collection, PBMCs are treated with demecolcine (0.1 μg/mL; Invitrogen, Paisley, UK) to arrest cells in metaphase. To observe mitotic cells, PBMCs are permeabilised and fixed by adding Intraprep (50 μL; Beckman Coulter, France), and stained with anti-phospho-histone 3 (0.26 ng/L; #9701; Cell Signalling, Danvers, Mass.) and propidium iodide (1 mg/mL; Sigma-Aldrich, Poole, UK) as previously described (Muehlbauer P. A. and Schuler M. J., Mutation Research, 2003, 537:117-130). Fluorescence is observed using an ATTUNE flow cytometer (Invitrogen, Paisley, UK), gating for lymphocytes.

[4] = tested on: PBMCs; assay: IL-2 and IFN gamma release in CD3/CD28 stimulated PBMC cells; settings: Homo sapiens, assay (c)
Description: PBMCs from healthy subjects are separated from whole blood using a density gradient (Lymphoprep, Axis-Shield Healthcare). Cells are added to a 96 well plate pre-coated with a mixture of CD3/CD28 monoclonal antibodies (0.3 μg/mL eBioscience and 3 μg/mL BD Pharmingen respectively). Compound at the desired concentration is then added to the wells and the plate left for 3 days under normal tissue culture conditions. […] The IC50 is determined from the dose response curve.

[5] = read-out: IC50 Values for Inhibition of Cytokine Release PBMCs IFNγ
[6] = read-out: IC50 Values for Inhibition of Cytokine Release PBMCs IL-2

SMILES	IC50 [1] [nM]	IC50 [2] [nM]	inhibition at 5 µg/mL [3] [%]	IC50 [4, 5] [nM]	IC50 [4, 6] [nM]
COCCOCCOCCOc1cc(Nc2nccc(Oc3ccc(NC(=O)Nc4cc(C(C)(C)C)cc(NS(=O)(=O)C5CCCCC5)c4OC)c4ccccc34)n2)cc(OC)c1 [Example 72, N-(5-(tert-Butyl)-2-methoxy-3-(3-(4-((2-((3-methoxy-5-(2-(2-(2-methoxyethoxy)ethoxy)-ethoxy)phenyl)amino)pyrimidin-4-yl)oxy)naphthalen-1-yl)ureido)phenyl)cyclohexane-sulfonamide]	11.8	19.2			
C#Cc1cc(Nc2cc(Oc3ccc(NC(=O)Nc4cc(C(C)(C)C)cc(C(=O)NC)c4OC)c4ccccc34)ccn2)cc(C(=O)NCCN2CCOCC2)c1 [Example 39, 5-(tert-Butyl)-3-(3-(4-((2-((3-ethynyl-5-((2-morpholinoethyl)carbamoyl)phenyl)amino)-pyridin-4-yl)oxy)naphthalen-1-yl)ureido)-2-methoxy-N-methylbenzamide]	2.5	5.3	34.7	9.6	132
CNC(=O)c1cc(NC(=O)Nc2ccc(Oc3ccnc(Nc4cc(OC)cc(OCCOCCOCCOC)c4)n3)c3ccccc23)cc(C(C)(C)C)c1 [Example 23, 3-(tert-Butyl)-5-(3-(4-((2-((3-methoxy-5-(2-(2-(2-methoxyethoxy)ethoxy)ethoxy)phenyl)-amino)pyrimidin-4-yl)oxy)naphthalen-1-yl)ureido)-N-methylbenzamide]	2.6	4.7	25.4	9.1	17.1
COCCOCCOCCOc1cc(Nc2nccc(Oc3ccc(NC(=O)Nc4cc(C(C)(C)C)cc(NS(C)(=O)=O)c4-c4ccccc4)c4ccccc34)n2)cc(OC)c1 [83(a), N-(4-(tert-butyl)-6-(3-(4-((2-((3-methoxy-5-(2-(2-(2-methoxyethoxy)ethoxy)ethoxy)phenyl)-amino)pyrimidin-4-yl)oxy)naphthalen-1-yl)ureido)-[1,1′-biphenyl]-2-yl)methane-sulfonamide]	39	62.5			
C#Cc1cc(Nc2cc(Oc3ccc(NC(=O)Nc4cc(NS(C)(=O)=O)cc(C(C)(C)C)c4)c4ccccc34)ccn2)cc(C(=O)NCCN2CCOCC2)c1 [Example 65, 3-((4-((4-(3-(3-(tert-Butyl)-5-(methylsulfonamido)phenyl)ureido)naphthalen-1-yl)oxy)-pyridin-2-yl)amino)-5-ethynyl-N-(2-morpholinoethyl)benzamide]	4	145	51.1	34.4	131
COCCOCCOCCOCCOCCOCCOCCOc1cc(Nc2cc(Oc3ccc(NC(=O)Nc4cc(C(C)(C)C)cc(NS(C)(=O)=O)c4OC)c4ccccc34)ccn2)cc(OC)c1 [Example 45, N-(3-(3-(4-((2-((3-(2,5,8,11,14,17,20-Heptaoxadocosan-22-yloxy)-5-methoxyphenyl)-amino)pyridin-4-yl)oxy)naphthalen-1-yl)ureido)-5-(tert-butyl)-2-methoxyphenyl)methane-sulfonamide]	1.4	2.1	45	7.8	182
COCCOCCOCCOc1cc(Nc2nccc(Oc3ccc(NC(=O)Nc4cc(C(C)(C)C)cc(S(N)(=O)=O)c4OC)c4ccccc34)n2)cc(OC)c1 [Example 55, 5-(tert-Butyl)-2-methoxy-3-(3-(4-((2-((3-methoxy-5-(2-(2-(2-methoxyethoxy)ethoxy)-ethoxy)phenyl)amino)pyrimidin-4-yl)oxy)naphthalen-1-yl)ureido)benzenesulfonamide]	2.2	4.5	54.3	12	35.2
C#Cc1cc(Nc2cc(Oc3ccc(NC(=O)Nc4cc(C(C)(C)C)cc(NS(C)(=O)=O)c4OC)c4ccccc34)ccn2)cc(C(=O)NCCN2CCOCC2)c1 [Example 49, 3-((4-((4-(3-(5-(tert-Butyl)-2-methoxy-3-(methylsulfonamido)phenyl)ureido)naphthalen-1-yl)oxy)pyridin-2-yl)amino)-5-ethynyl-N-(2-morpholinoethyl)benzamide]	2.5	8.6	40.1	11	227
COCCOCCOc1cc(Nc2nccc(Oc3ccc(NC(=O)Nc4cc(C(C)(C)C)cc(NS(C)(=O)=O)c4OC)c4ccccc34)n2)cc(OC)c1 [Example 36, N-(5-(tert-Butyl)-2-methoxy-3-(3-(4-((2-((3-methoxy-5-(2-(2-methoxyethoxy)ethoxy)-phenyl)amino)pyrimidin-4-yl)oxy)naphthalen-1-yl)ureido)phenyl)methanesulfonamide]	1.8	0.8	45	5.7	65.3
COCCOCCOCCOc1cc(Nc2nccc(Oc3ccc(NC(=O)Nc4cc(C(C)(C)C)cc(NS(=O)(=O)N5CCCCC5)c4OC)c4ccccc34)n2)cc(OC)c1 [Example 73, N-(5-(tert-Butyl)-2-methoxy-3-(3-(4-((2-((3-methoxy-5-(2-(2-(2-methoxyethoxy)ethoxy)-ethoxy)phenyl)amino)pyrimidin-4-yl)oxy)naphthalen-1-yl)ureido)phenyl)piperidine-1-sulfonamide]	19	31.6			
COCCOCCOCCOc1cc(Nc2nccc(Oc3ccc(NC(=O)Nc4cc(N5CCOCC5)ccc4OC)c4ccccc34)n2)cc(OC)c1 [Example 12, 1-(4-((2-((3-Methoxy-5-(2-(2-(2-methoxyethoxy)ethoxy)ethoxy)phenyl)amino)-pyrimidin-4-yl)oxy)naphthalen-1-yl)-3-(2-methoxy-5-morpholinophenyl)urea]	107	1320			
COCCOCCOCCOc1cc(Nc2nccc(Oc3ccc(NC(=O)Nc4cc(C(C)(C)C)cc(NS(=O)(=O)C(F)(F)F)c4OC)c4ccccc34)n2)cc(OC)c1 [Example 71, N-(5-(tert-Butyl)-2-methoxy-3-(3-(4-((2-((3-methoxy-5-(2-(2-(2-methoxyethoxy)ethoxy)-ethoxy)phenyl)amino)pyrimidin-4-yl)oxy)naphthalen-1-yl)ureido)phenyl)-1,1,1-trifluoro-methanesulfonamide]	114	1150			
COCCOCCOCCOc1cc(Nc2nccc(Oc3ccc(NC(=O)Nc4cc(C(C)(C)C)cc(-c5cnn[nH]5)c4OC)c4ccccc34)n2)cc(OC)c1 [Example 70, 1-(5-(tert-Butyl)-2-methoxy-3-(1H-1,2,3-triazol-5-yl)phenyl)-3-(4-((2-((3-methoxy-5-(2-(2-(2-methoxyethoxy)ethoxy)ethoxy)phenyl)amino)pyrimidin-4-yl)oxy)naphthalen-1-yl)urea]	4.9	4.1		7.4	
COCCOCCOCCOc1cc(Nc2nccc(Oc3ccc(NC(=O)Nc4cc(C(C)(C)C)cc(NS(=O)(=O)N(C)C)c4OC)c4ccccc34)n2)cc(OC)c1 [Example 74, N-(5-(tert-Butyl)-2-methoxy-3-(3-(4-((2-((3-methoxy-5-(2-(2-(2-methoxyethoxy)ethoxy)-ethoxy)phenyl)amino)pyrimidin-4-yl)oxy)naphthalen-1-yl)ureido)phenyl)dimethylamino-sulfonamide]	6.6	11.7			
COc1c(NC(=O)Nc2ccc(Oc3ccnc(NCc4ccccn4)c3)c3ccccc23)cc(C(C)(C)C)cc1C(=O)NC1COC1 [Example 80, 5-(tert-Butyl)-2-methoxy-N-(oxetan-3-yl)-3-(3-(4-((2-((pyridin-2-ylmethyl)amino)pyridin-4-yl)oxy)naphthalen-1-yl)ureido)benzamide]	4.3		70.4	23.8	
COc1cc(Nc2cc(Oc3ccc(NC(=O)Nc4cc(C(C)(C)C)cc(NS(C)(=O)=O)c4OC)c4ccccc34)ccn2)cc(C(=O)NCC(C)(C)N2CCOCC2)c1 [85(h), 3-[[4-[[4-[[5-tert-Butyl-3-(methanesulfonamido)-2-methoxyphenyl]-carbamoylamino]-1-naphthyl]oxy]-2-pyridyl]amino]-5-methoxy-N-(2-methyl-2-morpholinopropyl)benzamide]	2.2		27.5	23	150
